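Grown in 96-well plates, cells were treated for 48 hours with each compound at five concentrations. Insufficient inhibition: endpoint recorded as highest concentration tested. GI50: concentration for 50% inhibition of growth.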 The source made the active and inactive calls. No stated cut-off is given here; in the data, active = GI50 up to about 1.1 µM and inactive = higher.
Key:
Assay in all cases: inhibition of tumour cell growth, NCI panel, 48 h
786-0 = tested on: 786-0
A498 = tested on: A498
A549 = tested on: A549
ACHN = tested on: ACHN
BT-549 = tested on: BT-549
CAKI-1 = tested on: CAKI-1
CCRF-CEM = tested on: CCRF-CEM
COLO 205 = tested on: COLO 205
DU-145 = tested on: DU-145
EKVX = tested on: EKVX
HCC 2998 = tested on: HCC 2998
HCT-116 = tested on: HCT-116
HCT-15 = tested on: HCT-15
HL-60 = tested on: HL-60
HOP-62 = tested on: HOP-62
HOP-92 = tested on: HOP-92
HT-29 = tested on: HT-29
Hs-578T = tested on: Hs-578T
IGROV-1 = tested on: IGROV-1
K562 = tested on: K562
KM12 = tested on: KM12
LOX IMVI = tested on: LOX IMVI
M14 = tested on: M14
MCF7 = tested on: MCF7
MDA-MB-231 = tested on: MDA-MB-231
MDA-MB-435 = tested on: MDA-MB-435
MDA-N = tested on: MDA-N
MOLT-4 = tested on: MOLT-4
Malme-3M = tested on: Malme-3M
NCI-H226 = tested on: NCI-H226
NCI-H23 = tested on: NCI-H23
NCI-H460 = tested on: NCI-H460
NCI-H522 = tested on: NCI-H522
NCI/ADR-RES = tested on: NCI/ADR-RES
OVCAR-3 = tested on: OVCAR-3
OVCAR-4 = tested on: OVCAR-4
OVCAR-5 = tested on: OVCAR-5
OVCAR-8 = tested on: OVCAR-8
PC-3 = tested on: PC-3
RPMI-8226 = tested on: RPMI-8226
RXF 393 = tested on: RXF 393
SF-268 = tested on: SF-268
SF-295 = tested on: SF-295
SF-539 = tested on: SF-539
SK-MEL-28 = tested on: SK-MEL-28
SK-MEL-2 = tested on: SK-MEL-2
SK-MEL-5 = tested on: SK-MEL-5
SK-OV-3 = tested on: SK-OV-3
SN12C = tested on: SN12C
SNB-19 = tested on: SNB-19
SNB-75 = tested on: SNB-75
SR = tested on: SR
SW-620 = tested on: SW-620
T47D = tested on: T47D
TK-10 = tested on: TK-10
U-251 = tested on: U-251
UACC-257 = tested on: UACC-257
UACC-62 = tested on: UACC-62
UO-31 = tested on: UO-31

Measured: GI50

O=C1NC(=S)N(c2cccc3ccccc23)C(=O)/C1=C/c1c[nH]c2ccccc12
1670 nM: HCT-15
inactive: 786-0 1710 nM | A498 2050 nM | A549 5120 nM | ACHN 2370 nM | BT-549 1790 nM | CAKI-1 2540 nM | CCRF-CEM 1760 nM | COLO 205 1840 nM | DU-145 1800 nM | EKVX 2060 nM | HCC 2998 1870 nM | HCT-116 2010 nM | HL-60 2210 nM | HOP-62 2830 nM | HOP-92 2130 nM | HT-29 2170 nM | Hs-578T 3520 nM | IGROV-1 2030 nM | K562 2380 nM | KM12 2320 nM | LOX IMVI 1820 nM | M14 1840 nM | MCF7 2540 nM | MDA-MB-231 2160 nM | MDA-MB-435 2340 nM | MDA-N 2100 nM | MOLT-4 1870 nM | Malme-3M 2230 nM | NCI-H226 2420 nM | NCI-H23 1810 nM | NCI-H460 2360 nM | NCI-H522 2780 nM | NCI/ADR-RES 3000 nM | OVCAR-3 3380 nM | OVCAR-4 2440 nM | OVCAR-5 2400 nM | OVCAR-8 2390 nM | PC-3 2360 nM | RPMI-8226 2020 nM | RXF 393 1910 nM | SF-268 2640 nM | SF-295 3070 nM | SF-539 2230 nM | SK-MEL-28 2260 nM | SK-MEL-2 1690 nM | SK-MEL-5 1660 nM | SK-OV-3 4020 nM | SN12C 2020 nM | SNB-19 3080 nM | SNB-75 2430 nM | SR 1410 nM | SW-620 2250 nM | T47D 3890 nM | TK-10 2670 nM | U-251 2220 nM | UACC-257 2310 nM | UACC-62 1700 nM | UO-31 2150 nM

Reference: ChEMBL document CHEMBL1201862, “PubChem BioAssay data set” (2004)
